Measured values reported in ChEMBL document CHEMBL1142630, “The application of HPLC with on-line coupled UV/MS-biochemical detection for isolation of an acetylcholinesterase inhibitor from narcissus 'Sir Winston Churchill'” (J Nat Prod, 2000).

Biological target: Acetylcholinesterase (Homo sapiens, UniProt P22303)
Test: Inhibition of AChE by microplate assay

Acetylcholinesterase, sequence (P22303 whole entry): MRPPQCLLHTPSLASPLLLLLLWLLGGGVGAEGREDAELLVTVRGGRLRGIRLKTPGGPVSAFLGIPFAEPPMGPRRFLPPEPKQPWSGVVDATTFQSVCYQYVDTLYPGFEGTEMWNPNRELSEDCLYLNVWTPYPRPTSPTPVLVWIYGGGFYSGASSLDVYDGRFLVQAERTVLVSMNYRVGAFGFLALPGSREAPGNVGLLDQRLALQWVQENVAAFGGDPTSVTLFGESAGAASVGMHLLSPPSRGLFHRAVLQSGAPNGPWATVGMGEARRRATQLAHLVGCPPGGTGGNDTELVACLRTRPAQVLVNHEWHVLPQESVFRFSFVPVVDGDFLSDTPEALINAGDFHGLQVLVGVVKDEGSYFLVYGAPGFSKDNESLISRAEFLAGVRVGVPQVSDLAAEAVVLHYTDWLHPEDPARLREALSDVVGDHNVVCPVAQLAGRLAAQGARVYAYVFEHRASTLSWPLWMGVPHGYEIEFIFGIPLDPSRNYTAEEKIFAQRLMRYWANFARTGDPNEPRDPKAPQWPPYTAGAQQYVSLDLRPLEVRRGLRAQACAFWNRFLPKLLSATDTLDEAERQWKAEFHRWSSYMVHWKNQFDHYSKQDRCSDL

How did the IC50 turn out when `CO[C@@H]1[C@@H](O)[C@H]2c3cc4c(cc3CN3CC=C([C@H]1O)[C@H]23)OCO4` [UNGIMINORINE] was run?
Its IC50 is 86 µM.
